Assay results as given in PubChem BioAssay AID1320 (NMMLSC, 2008).
Activity calls are given as the source filed them. No rule for the calls is given here.

Molecular target: Bcl-2-related protein A1 (Homo sapiens) (UniProt Q16548)
Test: inhibitors of Bim binding to Bfl-1, dose response, biochemical, multiplexed, bead-based flow cytometry (AID 1320); as to percent span (inhibition): test concentration not given here
Conditions: Bim peptide-Bfl-1 binding, fluorescence; for percent span (inhibition): hits give high values

Sequence of Bcl-2-related protein A1 (Homo sapiens) (Q16548 whole entry, looked up): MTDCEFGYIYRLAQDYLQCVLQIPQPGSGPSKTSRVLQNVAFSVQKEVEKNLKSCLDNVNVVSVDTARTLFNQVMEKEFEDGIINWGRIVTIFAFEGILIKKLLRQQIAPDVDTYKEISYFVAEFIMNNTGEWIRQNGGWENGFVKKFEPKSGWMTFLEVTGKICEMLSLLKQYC

For `Cc1cccc(C(=O)N2CCC(c3nc(-c4ccc(S(=O)(=O)N5CCOCC5)cc4)no3)CC2)c1`, the “percent span (inhibition)” value was “inactive”.
In the case of `Cc1ccc(-c2cc(C(=O)Nc3ccccc3C)c3ccccc3n2)o1`, the “percent span (inhibition)” value is reported as “inactive”.
In the case of `CN(Cc1ccccc1)C(=O)c1[nH]cnc1C(=O)N[C@@H](CCCCNC(=O)OC(C)(C)C)C(=O)OC(C)(C)C`, the “percent span (inhibition)” value is reported as “inactive”.
In the case of `CN(C)[C@@H]1C(=O)C(C(=O)NCN2CCCC2)=C(O)[C@@]2(O)C(=O)C3=C(O)c4c(O)cccc4[C@@](C)(O)C3CC12` (stereo not given in full), the “percent span (inhibition)” value is reported as “inactive”.
`Cc1[nH]c2ccccc2c1C(=O)COC(=O)c1c(-c2c(F)cccc2Cl)noc1C` was tested, and the “percent span (inhibition)” value was “inactive”.
With `CCN(CC)c1ccc(-c2nn3c(-c4cccnc4)nnc3s2)cc1` the “percent span (inhibition)” value was “inactive”.
In the case of `CN(/N=C/C=C/c1ccccc1)C1=NS(=O)(=O)c2ccccc21`, the “percent span (inhibition)” value is reported as “inactive”.
With `O=C(c1cnccn1)N(Cc1cccs1)C1(C(=O)NC2CCCCC2)CCCCC1` the “percent span (inhibition)” value was “inactive”.
For `O=C(COCC(=O)NCc1ccccc1)NCc1ccccc1`, the “percent span (inhibition)” value was “inactive”.
In the case of `CCCCOC(=O)c1nc(Cl)c(Cl)c(N)c1Cl`, the “percent span (inhibition)” value is reported as “inactive”.
For `COc1ccc(OC)c2sc(NC(=O)c3ccc(Br)s3)nc12`, the “percent span (inhibition)” value was “inactive”.
For `O=C(NCCCN1CCN(CCCNC(=O)c2cc([N+](=O)[O-])ccc2Cl)CC1)c1cc([N+](=O)[O-])ccc1Cl`, the “percent span (inhibition)” value was “inactive”.
In the case of `COc1ccc(-n2c(=O)c3ccccc3c3ccccc3c2=O)c(OC)c1`, the “percent span (inhibition)” value is reported as “inactive”.
In the case of `CCCn1c(N2CCN(C)CC2)nc2c1c(=O)[nH]c(=O)n2C`, the “percent span (inhibition)” value is reported as “inactive”.
In the case of `CSc1n[nH]c2nc3c(c(=O)n12)C1(CCCC1)Cc1ccccc1-3`, the “percent span (inhibition)” value is reported as “inactive”.
`COc1ccccc1Cn1nnc2c(=O)[nH]c(C3CCN(C(=O)c4ccc(C)cc4)CC3)nc21` was tested, and the “percent span (inhibition)” value was “inactive”.
In the case of `C#CCOCCOCCOCCNc1nc(N2CCN(C(=O)[C@H]([C@@H](C)CC)n3cc([C@@H](N)CC(C)C)nn3)CC2)nc(N2CCN(C(=O)[C@H](Cc3cc4ccccc4[nH]3)n3cc([C@@H](N)Cc4ccc(O)cc4)nn3)CC2)n1`, the “percent span (inhibition)” value is reported as “inactive”.
For `COCCCn1c(N)c(C(=O)Nc2sc3c(c2C(=O)OC)CCCC3)c2nc3ccccc3nc21`, the “percent span (inhibition)” value was “inactive”.
For `Cc1ccc(/C=N/N(C)C2=NS(=O)(=O)c3ccccc32)o1`, the “percent span (inhibition)” value was “inactive”.
For `O=S1(=O)N=C(N(CCO)/N=C/c2ccccc2)c2ccccc21`, the “percent span (inhibition)” value was “inactive”.
In the case of `COc1ccc(C2C(C#N)=C(C)NC3=C2S(=O)(=O)c2ccccc23)cc1` (stereo not given), the “percent span (inhibition)” value is reported as “inactive”.
In the case of `NCC(c1ccccc1)c1c[nH]c2ccccc12` (stereo not given), the “percent span (inhibition)” value is reported as “inactive”.
With `Cc1nn(-c2ccc(Cl)c(Cl)c2)c(C)c1C(=O)O` the “percent span (inhibition)” value was “inactive”.
In the case of `Cc1ccc(/C=N/NC(=O)CSc2nnc(-c3ccc(Cl)cc3)n2-c2ccccc2)o1`, the “percent span (inhibition)” value is reported as “inactive”.
For `COc1ccccc1-n1c(-c2ccc(Cl)cc2)c[nH]c1=S`, the “percent span (inhibition)” value was “inactive”.
For `NC(=O)CSc1nnc(Cn2cnc3ccccc32)o1`, the “percent span (inhibition)” value was “inactive”.
For `CCOC(=O)c1cc2c(=O)n3cccc(C)c3nc2n(Cc2ccco2)c1=NC(=O)c1ccccc1`, the “percent span (inhibition)” value was “inactive”.
`COc1ccccc1-n1c(SCC(=O)N2CCc3ccccc32)nc2c(c1=O)SCC2` was tested, and the “percent span (inhibition)” value was “inactive”.
In the case of `Cc1ccc(S(=O)(=O)N2CCCCC2)cc1NC(=O)COC(=O)c1ccccc1F`, the “percent span (inhibition)” value is reported as “inactive”.
For `Cc1ccc(-c2n[nH]c(=S)n2-c2ccccc2)cc1`, the “percent span (inhibition)” value was “inactive”.
In the case of `CCOC(=O)c1cccc(Nc2ncnc3ccccc23)c1`, the “percent span (inhibition)” value is reported as “inactive”.
In the case of `CNC(=O)CC1C(=O)N(Cc2ccccc2)C(=S)N1NC(=O)c1cccc(F)c1` (stereo not given), the “percent span (inhibition)” value is reported as “inactive”.
With `COc1ccc(C(=O)NC(=S)N2CCNC(=O)C2)cc1Br` the “percent span (inhibition)” value was “inactive”.
In the case of `O=C(NNC(=O)C12CC3CC(CC(C3)C1)C2)c1ccco1`, the “percent span (inhibition)” value is reported as “inactive”.
`CCOC(=O)CSc1nnc(-c2cccc(Cl)c2)n1CC` was tested, and the “percent span (inhibition)” value was “inactive”.
For `CCc1nnc(NS(=O)(=O)c2ccc(N=CC3=C(O)CC(C)(C)CC3=O)cc2)s1`, the “percent span (inhibition)” value was “inactive”.
`O=[N+]([O-])c1ccc2[nH]nc(-c3ccccc3)c2c1` was tested, and the “percent span (inhibition)” value was “inactive”.
In the case of `O=C(Cn1cncc1-c1ccc([N+](=O)[O-])cc1)Nc1ccccc1F`, the “percent span (inhibition)” value is reported as “inactive”.
In the case of `COc1ccc(C(=O)/C=C/c2cc(OC)c(O)c(OC)c2)c(F)c1`, the “percent span (inhibition)” value is reported as “inactive”.
In the case of `Cc1cc(C(=O)NCCCN(C)C)c2ccccc2n1`, the “percent span (inhibition)” value is reported as “inactive”.
With `CCN1CCN(CC(=O)c2c[nH]c3ccc(C)cc23)CC1` the “percent span (inhibition)” value was “inactive”.
In the case of `O=C(CC1NCCNC1=O)Nc1cccc([N+](=O)[O-])c1` (stereo not given), the “percent span (inhibition)” value is reported as “inactive”.
For `O=C(Cc1ccc(-c2ccccc2)cc1)NC1CCCC1`, the “percent span (inhibition)” value was “inactive”.
With `Cn1c(CNc2nc(-c3ccccc3)cs2)nnc1SCC(=O)N1CCc2ccccc21` the “percent span (inhibition)” value was “inactive”.
In the case of `Cc1cc(N2CCN(C)CC2)nc2ccc(NC(=S)N3CCC4(CC3)OCCO4)cc12`, the “percent span (inhibition)” value is reported as “inactive”.
In the case of `COc1ccc(N2C(=O)C(Cl)=C(Nc3c(C)n(C)n(-c4ccccc4)c3=O)C2=O)cc1`, the EC50 is reported as “inactive”.
In the case of `Cc1cc[n+]2cc(-c3cccc([N+](=O)[O-])c3)c(-c3cccc([N+](=O)[O-])c3)cc2c1`, the “percent span (inhibition)” value is reported as “inactive”.
For `Cc1ccc(NC(=O)CSc2nc3ccccc3c(=O)n2CCCN2CCCCC2)cc1Cl`, the “percent span (inhibition)” value was “inactive”.
`COc1ccccc1Oc1ccc2c(c1)C(=O)N(c1cccc3ncccc13)C2=O` was tested, and the “percent span (inhibition)” value was “inactive”.
With `CCN1/C(=C/c2ccc3cc(C)ccc3[n+]2CC)Sc2cc(C)c(C)cc21` the “percent span (inhibition)” value was “inactive”.
`COc1ccc(OCCNC(=O)c2ccccc2OCC(=O)N2CCCCC2)cc1` was tested, and the “percent span (inhibition)” value was “inactive”.
`Cc1ccccc1OCC(=O)N/N=C/c1ccccn1` was tested, and the “percent span (inhibition)” value was “inactive”.
For `Cc1noc(C)c1CN1C(=O)NC(Cc2ccccc2)(Cc2ccccc2)C1=O`, the “percent span (inhibition)” value was “inactive”.
`COc1ccc(NC(=O)c2cc(-c3ccc(C)o3)nc3ccccc23)cc1OC` was tested, and the “percent span (inhibition)” value was “inactive”.
In the case of `CCN1CCN(c2cc(C)c3cc(NC(=S)N4CCN(c5ccccc5)CC4)ccc3n2)CC1`, the “percent span (inhibition)” value is reported as “inactive”.
In the case of `c1csc(C2=Nn3c(nnc3-c3ccncc3)SC2)c1`, the “percent span (inhibition)” value is reported as “inactive”.
In the case of `O=c1c2c(n3nnnc3n1Cc1ccccc1)-c1ccccc1CC21CCCC1`, the “percent span (inhibition)” value is reported as “inactive”.
In the case of `CC(C)n1nnnc1SCC(=O)N1CCN(C(=O)c2ccco2)CC1`, the “percent span (inhibition)” value is reported as “inactive”.
In the case of `CCCCNC(=O)c1ccc2nc(-c3ccco3)c(-c3ccco3)nc2c1`, the “percent span (inhibition)” value is reported as “inactive”.
For `Cc1[nH]nc(SCC(=O)NCc2ccc(F)cc2)c1[N+](=O)[O-]`, the “percent span (inhibition)” value was “inactive”.
With `Cc1ccc(-c2cc(C(=O)Nc3cccnc3)c3ccccc3n2)o1` the “percent span (inhibition)” value was “inactive”.
For `COc1ccccc1Nc1nc(-c2c(C)nc3ncccn23)cs1`, the “percent span (inhibition)” value was “inactive”.
With `CCc1ccc(NC(=O)Cc2ccc(OC)cc2)cc1` the “percent span (inhibition)” value was “inactive”.
`Cc1nc2ccccc2n1CSc1ccccc1` was tested, and the “percent span (inhibition)” value was “inactive”.
`CCOC(=O)C1(CC/C(C)=N\NC(N)=O)CC(C)(C)OC1=O` (stereo not given) was tested, and the “percent span (inhibition)” value was “inactive”.
`Cc1ccc(/C=C2\CCCC3=C2NC(=S)NC3c2ccc(C)cc2)cc1` (stereo not given) was tested, and the “percent span (inhibition)” value was “inactive”.
With `O=C(/C=C\c1ccc(-c2ccccc2)o1)c1ccccc1` the “percent span (inhibition)” value was “inactive”.
`O=C(C1CCC(Cn2c(=S)[nH]c3ccccc3c2=O)CC1)N1CCN(c2ccccn2)CC1` (stereo not given) was tested, and the “percent span (inhibition)” value was “inactive”.
With `Clc1ccc2c(N/N=C/c3ccccc3Br)ccnc2c1` the EC50 was “inactive”.
With `Cc1c(N2C(=O)c3ccc4c5c(ccc(c35)C2=O)CC4)c(=O)n(-c2ccccc2)n1C` the “percent span (inhibition)” value was “inactive”.
`CC(/C=C/C(=O)c1ccc(C)cc1)=C\c1ccccc1` was tested, and the “percent span (inhibition)” value was “inactive”.
`CCCn1c(C)cc(-c2csc(N)n2)c1C` was tested, and the “percent span (inhibition)” value was “inactive”.
In the case of `COc1ccc2nc(C)cc(SCC(=O)N/N=C/c3ccc(O)c(O)c3)c2c1`, the “percent span (inhibition)” value is reported as “inactive”.
With `Cc1ccnc(NS(=O)(=O)c2ccc(NS(=O)(=O)c3cccs3)cc2)n1` the “percent span (inhibition)” value was “inactive”.
With `Cc1nc(=S)c2ccccc2[nH]1` the “percent span (inhibition)” value was “inactive”.
With `Cc1ccc(NS(=O)(=O)c2cc(NC(=O)c3ccc4c(c3)NC(=O)CS4)ccc2C)c(C)c1` the “percent span (inhibition)” value was “inactive”.
For `O=C(CSc1nnc(-c2cccs2)n1Cc1ccco1)c1ccc2c(c1)OCO2`, the “percent span (inhibition)” value was “inactive”.
In the case of `Cc1cccc(N2CCN(C(=S)Nc3ccc4nc(N5CCN(C)CC5)cc(C)c4c3)CC2)c1C`, the “percent span (inhibition)” value is reported as “inactive”.
`CC(C)(C)c1nc(NCCN2CCOCC2)c2nnn(Cc3ccccc3Cl)c2n1` was tested, and the “percent span (inhibition)” value was “inactive”.
`CCOC(=O)c1nc(Nc2ccc(C(=O)OC)cc2)c2ccccc2n1` was tested, and the “percent span (inhibition)” value was “inactive”.
`Cc1ccc(OCc2cn3cccnc3n2)cc1` was tested, and the “percent span (inhibition)” value was “inactive”.
With `Cc1noc(C)c1COc1ccc(C(=O)Nc2cccnc2)cc1` the “percent span (inhibition)” value was “inactive”.
With `CCCCC(C(=O)OCC)C(N)Cc1ccc(F)cc1` (stereo not given) the “percent span (inhibition)” value was “inactive”.
With `Cn1c(=O)[nH]c(=O)c2c1nc(N1CCOCC1)n2CCSc1nc2ccccc2[nH]1` the “percent span (inhibition)” value was “inactive”.
In the case of `O=C(NCCCN1CCCC1=O)NC1CCCCC1`, the “percent span (inhibition)” value is reported as “inactive”.
With `COc1ccc(C2(NC(C)=O)CCN(C(=O)c3ccco3)CC2)cc1` the “percent span (inhibition)” value was “inactive”.
`COP(=O)(CC(=O)O)c1ccccc1` (stereo not given) was tested, and the “percent span (inhibition)” value was “inactive”.
For `COc1ccc(NC(=O)c2sccc2SCc2cccc(C(F)(F)F)c2)cc1`, the “percent span (inhibition)” value was “inactive”.
In the case of `Cc1ccc(CNc2ccc3c(c2)OCO3)c(C)c1`, the “percent span (inhibition)” value is reported as “inactive”.
`COc1ccc(NC(=O)/C(C#N)=C/c2c(C)nn(-c3ccc(F)cc3)c2Cl)cc1Cl` was tested, and the “percent span (inhibition)” value was “inactive”.
For `Cc1ccc(NC2=C(Cl)C(=O)c3ccccc3C2=O)cc1`, the “percent span (inhibition)” value was “inactive”.
With `Cn1c(=O)c2c(nc(NCCO)n2CCc2ccccc2)n(C)c1=O` the “percent span (inhibition)” value was “inactive”.
In the case of `CC1C=CCC2C(=O)N(c3ccc(OC(=O)c4cccs4)cc3)C(=O)C12` (stereo not given), the “percent span (inhibition)” value is reported as “inactive”.
For `NC(=O)c1c(NC(=O)C2CCCO2)sc2c1CCCC2` (stereo not given), the “percent span (inhibition)” value was “inactive”.
In the case of `Cc1ccc(NC(=O)CC2S/C(=N/N=C/c3c[nH]c4ccccc34)NC2=O)cc1` (stereo not given), the “percent span (inhibition)” value is reported as “inactive”.
